Assays:
[1] = biological target: 5-hydroxytryptamine receptor 2A (Rattus norvegicus, UniProt P14842); assay: Displacement of [3H]ketanserin from 5HT2A receptor in rat cerebral cortex after 15 mins by liquid scintillation counting analysis; format: tissue-based
[2] = biological target: Voltage-gated inwardly rectifying potassium channel KCNH2 (Homo sapiens, UniProt Q12809)
Description: Inhibition of human ERG expressed in HEK293 cells by electrophysiology assay

[3] = biological target: T1, Adrenergic receptor alpha-2 (Rattus norvegicus, UniProt P22086+P19328+P22909)
T1 sequence (P22086 whole entry): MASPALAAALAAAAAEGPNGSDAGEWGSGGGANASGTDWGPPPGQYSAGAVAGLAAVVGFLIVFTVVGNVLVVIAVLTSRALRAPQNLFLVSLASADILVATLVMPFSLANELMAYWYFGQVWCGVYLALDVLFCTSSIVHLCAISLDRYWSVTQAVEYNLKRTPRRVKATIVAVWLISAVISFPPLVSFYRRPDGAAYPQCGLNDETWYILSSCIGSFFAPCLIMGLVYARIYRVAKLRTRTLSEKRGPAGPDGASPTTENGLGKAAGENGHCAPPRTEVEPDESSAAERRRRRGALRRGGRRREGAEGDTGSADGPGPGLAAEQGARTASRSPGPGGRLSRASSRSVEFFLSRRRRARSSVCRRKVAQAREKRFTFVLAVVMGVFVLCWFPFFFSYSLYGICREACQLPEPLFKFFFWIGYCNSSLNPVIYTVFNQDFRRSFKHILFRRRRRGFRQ
T1 sequence (P19328 whole entry): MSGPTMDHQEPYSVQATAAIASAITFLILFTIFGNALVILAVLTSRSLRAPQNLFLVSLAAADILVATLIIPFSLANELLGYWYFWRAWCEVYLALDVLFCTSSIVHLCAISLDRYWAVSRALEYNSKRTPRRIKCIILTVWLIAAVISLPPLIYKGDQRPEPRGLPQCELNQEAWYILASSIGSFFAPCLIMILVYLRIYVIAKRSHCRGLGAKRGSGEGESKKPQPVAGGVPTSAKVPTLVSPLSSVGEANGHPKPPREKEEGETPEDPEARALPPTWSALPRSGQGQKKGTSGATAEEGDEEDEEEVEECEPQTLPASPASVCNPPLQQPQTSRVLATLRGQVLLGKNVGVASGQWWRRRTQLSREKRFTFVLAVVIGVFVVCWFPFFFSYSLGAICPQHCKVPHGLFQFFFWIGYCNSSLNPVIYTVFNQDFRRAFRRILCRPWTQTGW
T1 sequence (P22909 whole entry): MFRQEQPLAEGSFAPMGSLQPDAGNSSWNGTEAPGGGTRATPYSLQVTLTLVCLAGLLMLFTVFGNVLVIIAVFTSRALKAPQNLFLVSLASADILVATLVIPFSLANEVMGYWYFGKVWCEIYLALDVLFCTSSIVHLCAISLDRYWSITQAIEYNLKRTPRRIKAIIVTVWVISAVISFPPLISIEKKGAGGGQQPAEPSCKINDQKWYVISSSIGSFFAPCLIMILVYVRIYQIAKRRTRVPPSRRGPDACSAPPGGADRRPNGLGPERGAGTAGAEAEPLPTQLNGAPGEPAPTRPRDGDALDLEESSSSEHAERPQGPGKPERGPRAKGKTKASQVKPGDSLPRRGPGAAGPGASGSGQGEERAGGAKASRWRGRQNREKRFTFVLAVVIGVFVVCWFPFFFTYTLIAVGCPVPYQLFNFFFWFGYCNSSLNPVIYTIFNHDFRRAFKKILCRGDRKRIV
Description: Displacement of [3H]rauwolscine from alpha-2 adrenergic receptor in rat cerebral cortex after 60 mins by liquid scintillation counting analysis

[4] = biological target: T2, 5-hydroxytryptamine receptor 2A (Homo sapiens, UniProt P28223); assay: Antagonist activity at 5HT2A receptor (unknown origin) expressed in CHOK1 cells coexpressing Galpha15 assessed as inhibition of agonist-induced response at 10 uM incubated for 60 mins in incubator followed by 15 mins at room temperature by FLIPR assay relative to control; format: cell-based; details: CHO-K1
T2 sequence (P28223 whole entry): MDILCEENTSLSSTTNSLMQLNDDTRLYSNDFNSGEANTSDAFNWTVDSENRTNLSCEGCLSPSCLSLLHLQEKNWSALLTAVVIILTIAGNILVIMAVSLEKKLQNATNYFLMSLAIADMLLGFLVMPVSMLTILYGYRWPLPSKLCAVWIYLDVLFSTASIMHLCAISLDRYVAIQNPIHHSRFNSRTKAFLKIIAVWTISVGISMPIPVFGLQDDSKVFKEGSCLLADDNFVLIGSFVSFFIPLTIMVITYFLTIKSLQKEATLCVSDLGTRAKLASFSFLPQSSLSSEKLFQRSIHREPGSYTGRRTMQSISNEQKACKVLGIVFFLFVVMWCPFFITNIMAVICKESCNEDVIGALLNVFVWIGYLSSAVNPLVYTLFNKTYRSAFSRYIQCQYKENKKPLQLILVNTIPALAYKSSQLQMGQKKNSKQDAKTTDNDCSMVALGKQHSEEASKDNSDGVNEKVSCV

D(2) dopamine receptor = D(2) dopamine receptor (Homo sapiens, UniProt P14416)
D(2) dopamine receptor, sequence (P14416 whole entry): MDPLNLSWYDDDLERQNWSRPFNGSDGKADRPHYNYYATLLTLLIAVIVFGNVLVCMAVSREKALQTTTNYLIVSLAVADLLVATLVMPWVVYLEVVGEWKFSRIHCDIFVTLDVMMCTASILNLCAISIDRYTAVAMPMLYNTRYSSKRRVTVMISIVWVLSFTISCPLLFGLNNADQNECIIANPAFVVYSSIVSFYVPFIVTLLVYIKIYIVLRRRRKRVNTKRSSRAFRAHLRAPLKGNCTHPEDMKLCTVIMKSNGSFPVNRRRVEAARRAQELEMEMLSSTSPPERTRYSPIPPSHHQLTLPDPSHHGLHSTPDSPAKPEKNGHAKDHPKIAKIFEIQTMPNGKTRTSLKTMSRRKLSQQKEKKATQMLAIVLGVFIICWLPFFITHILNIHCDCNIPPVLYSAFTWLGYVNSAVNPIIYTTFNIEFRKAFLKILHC

[5] = biological target: T2, 5-hydroxytryptamine receptor 2A; assay: Agonist activity at 5HT2A receptor (unknown origin) expressed in CHOK1 cells coexpressing Galpha15 at 10 uM by FLIPR assay relative to control; format: cell-based; details: CHO-K1
[6] = biological target: T2, 5-hydroxytryptamine receptor 2A
Description: Antagonist activity at 5HT2A receptor (unknown origin) expressed in CHOK1 cells coexpressing Galpha15 assessed as inhibition of agonist-induced response incubated for 60 mins in incubator followed by 15 mins at room temperature by FLIPR assay

[7] = AUC (0 to infinity) in rat at 5 mg/kg, iv by HPLC-MS analysis; format: ADME, organism-based; parameters: time infinity, dose 5 mg/kg, route intravenous; details: plasma
[8] = AUC (0 to infinity) in rat at 12 mg/kg, po by HPLC-MS analysis; format: ADME, organism-based; parameters: time infinity, dose 12 mg/kg, route oral; details: plasma
[9] = AUC (0 to 12 hrs) in rat at 5 mg/kg, iv by HPLC-MS analysis; format: ADME, organism-based; parameters: time < 12 hr, dose 5 mg/kg, route intravenous; details: plasma
[10] = Acute toxicity in mouse assessed as mortality after 24 hrs; format: organism-based; details: in vivo
Rattus norvegicus = assay: Toxicity in rat assessed as QT interval prolongation/cardiac liability at 5 to 60 mg/kg, po by electrophysiology assay; format: organism-based; parameters: dose 5-60 mg/kg, route oral; details: in vivo
in vivo = details: mouse, po
D(3) dopamine receptor = D(3) dopamine receptor (Homo sapiens, UniProt P35462)
D(3) dopamine receptor, sequence (P35462 whole entry): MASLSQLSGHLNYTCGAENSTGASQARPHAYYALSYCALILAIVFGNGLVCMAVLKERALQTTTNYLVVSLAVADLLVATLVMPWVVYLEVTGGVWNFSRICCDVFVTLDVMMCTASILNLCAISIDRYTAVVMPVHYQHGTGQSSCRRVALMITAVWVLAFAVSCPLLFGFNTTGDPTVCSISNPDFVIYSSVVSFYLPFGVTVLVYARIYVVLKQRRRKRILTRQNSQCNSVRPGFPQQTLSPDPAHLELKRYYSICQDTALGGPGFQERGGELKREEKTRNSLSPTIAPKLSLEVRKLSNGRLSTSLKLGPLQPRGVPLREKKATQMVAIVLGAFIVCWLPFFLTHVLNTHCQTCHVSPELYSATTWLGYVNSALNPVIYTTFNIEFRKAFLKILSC

Mus musculus [11] = species: Mus musculus; assay: animal or person; details: po
Description: Antipsychotic activity in po dosed mouse assessed as reduction in apomorphine-induced climbing behavior administered for 30 mins prior to apomorphine-challenge measured at 10 to 30 mins post-dose

[12] = Half life in rat at 12 mg/kg, po by HPLC-MS analysis; format: ADME, organism-based; parameters: dose 12 mg/kg, route oral; details: in vivo
Mus musculus [13] = tested on: Mus musculus
[14] = biological target: T3, 5-hydroxytryptamine receptor 1A (Homo sapiens) (UniProt P08908); assay: Agonist activity at 5HT1A receptor (unknown origin) expressed in CHOK1 cells coexpressing Galpha15 at 10 uM by FLIPR assay relative to control; format: cell-based; details: CHO-K1
T3 sequence (whole entry): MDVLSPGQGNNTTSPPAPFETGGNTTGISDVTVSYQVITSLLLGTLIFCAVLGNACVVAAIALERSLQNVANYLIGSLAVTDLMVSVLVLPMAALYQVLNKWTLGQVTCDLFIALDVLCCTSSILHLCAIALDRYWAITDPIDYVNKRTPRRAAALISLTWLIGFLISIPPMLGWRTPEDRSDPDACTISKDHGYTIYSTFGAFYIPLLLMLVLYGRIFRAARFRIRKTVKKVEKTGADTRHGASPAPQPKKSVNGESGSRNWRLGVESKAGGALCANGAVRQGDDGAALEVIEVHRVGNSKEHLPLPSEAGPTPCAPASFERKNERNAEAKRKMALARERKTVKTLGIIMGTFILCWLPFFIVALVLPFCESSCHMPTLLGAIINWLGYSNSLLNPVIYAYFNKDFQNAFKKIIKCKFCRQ

[15] = biological target: T4, 5-hydroxytryptamine receptor 1A (Homo sapiens, UniProt P08908)
T4 sequence (P08908 whole entry): T3 sequence (whole entry)
Description: Antagonist activity at 5HT1A receptor (unknown origin) expressed in CHOK1 cells coexpressing Galpha15 assessed as inhibition of agonist-induced response incubated for 60 mins in incubator followed by 15 mins at room temperature by FLIPR assay

[16] = AUC (0 to 12 hrs) in rat at 12 mg/kg, po by HPLC-MS analysis; format: ADME, organism-based; parameters: time < 12 hr, dose 12 mg/kg, route oral; details: plasma

Voltage-gated inwardly rectifying potassium channel KCNH2, sequence (Q12809 whole entry): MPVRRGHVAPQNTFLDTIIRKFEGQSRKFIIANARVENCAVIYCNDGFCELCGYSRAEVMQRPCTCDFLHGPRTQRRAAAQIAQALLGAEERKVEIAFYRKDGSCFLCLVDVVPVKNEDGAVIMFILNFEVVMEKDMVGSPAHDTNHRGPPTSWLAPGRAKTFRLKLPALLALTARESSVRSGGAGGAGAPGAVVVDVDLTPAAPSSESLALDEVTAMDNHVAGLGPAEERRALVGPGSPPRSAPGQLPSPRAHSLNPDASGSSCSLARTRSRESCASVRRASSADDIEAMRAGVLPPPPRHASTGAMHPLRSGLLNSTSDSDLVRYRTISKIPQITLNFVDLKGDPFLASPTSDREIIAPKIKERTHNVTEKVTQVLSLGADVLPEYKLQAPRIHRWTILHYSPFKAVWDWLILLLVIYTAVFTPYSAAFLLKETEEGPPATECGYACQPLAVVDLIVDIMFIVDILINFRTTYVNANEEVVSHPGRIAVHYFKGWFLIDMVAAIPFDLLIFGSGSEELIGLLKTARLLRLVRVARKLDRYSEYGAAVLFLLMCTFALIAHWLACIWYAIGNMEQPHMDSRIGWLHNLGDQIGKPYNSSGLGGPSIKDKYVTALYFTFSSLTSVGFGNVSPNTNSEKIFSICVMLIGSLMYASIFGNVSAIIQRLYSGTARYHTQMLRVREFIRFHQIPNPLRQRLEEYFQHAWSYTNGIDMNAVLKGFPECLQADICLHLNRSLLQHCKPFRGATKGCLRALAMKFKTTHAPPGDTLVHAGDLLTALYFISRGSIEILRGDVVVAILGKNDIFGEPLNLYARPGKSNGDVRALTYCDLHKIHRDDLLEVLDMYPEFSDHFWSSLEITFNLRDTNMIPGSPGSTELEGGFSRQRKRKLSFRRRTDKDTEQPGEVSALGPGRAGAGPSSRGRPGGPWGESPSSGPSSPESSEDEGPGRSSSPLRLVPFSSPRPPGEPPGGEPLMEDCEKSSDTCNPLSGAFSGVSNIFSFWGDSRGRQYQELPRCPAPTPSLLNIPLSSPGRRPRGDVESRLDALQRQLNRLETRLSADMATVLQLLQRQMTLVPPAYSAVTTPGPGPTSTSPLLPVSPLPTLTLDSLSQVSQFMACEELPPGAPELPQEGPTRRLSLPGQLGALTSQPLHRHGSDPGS
5-hydroxytryptamine receptor 2A (Rattus norvegicus, UniProt P14842), sequence (P14842 whole entry): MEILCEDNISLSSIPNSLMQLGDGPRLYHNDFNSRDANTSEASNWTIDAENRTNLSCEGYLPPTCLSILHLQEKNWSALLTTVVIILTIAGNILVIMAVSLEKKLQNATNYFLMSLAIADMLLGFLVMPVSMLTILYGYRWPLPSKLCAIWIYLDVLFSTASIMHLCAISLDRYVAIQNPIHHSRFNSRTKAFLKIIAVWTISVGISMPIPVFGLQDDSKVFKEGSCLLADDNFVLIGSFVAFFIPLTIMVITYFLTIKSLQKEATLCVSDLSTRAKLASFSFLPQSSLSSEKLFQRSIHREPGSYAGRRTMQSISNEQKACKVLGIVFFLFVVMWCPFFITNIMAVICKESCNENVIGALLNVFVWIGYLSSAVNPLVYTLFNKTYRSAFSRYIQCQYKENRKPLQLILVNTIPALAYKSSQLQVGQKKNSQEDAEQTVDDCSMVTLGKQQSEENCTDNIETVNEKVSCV

SMILES | Ki [1] | IC50 [2] | Ki [3] | other results
Cc1c(C)c2ccc(OCCCCN3CCC(c4noc5cc(F)ccc45)CC3)cc2oc1=O | 0.3 nM | 195 nM | 124.3 nM | –
Cc1cc(=O)oc2cc(OCCCCN3CCC(c4noc5cc(F)ccc45)CC3)ccc12 | 8.4 nM | 159 nM | 159.6 nM | –
Cc1cc(=O)oc2c(Cl)c(OCCCCN3CCC(c4noc5cc(F)ccc45)CC3)ccc12 | 0.3 nM | 1590 nM | 15.6 nM | inhibition [4]: 99.1%; IC50 (D(2) dopamine receptor): 26.3 nM; Activity [5]: 10%; IC50 [6]: 39.2 nM; AUC(0-inf) [7]: 914 ng·h/mL; AUC(0-inf) [8]: 703 ng·h/mL; AUC(0-t) at 12 h [9]: 822 ng·h/mL; LD50 at 24 h [10]: > 2000 mg/kg; Activity (Rattus norvegicus): Non-toxic; selectivity ratio (in vivo): 221; IC50 (D(3) dopamine receptor): 24.8 nM; ED50 (Mus musculus [11]): 0.14 mg/kg; half-life [12]: 6.7 h; Activity (Mus musculus [13]): Dose-dependent effect; Activity [14]: 9.9%; IC50 [15]: 11.8 nM; AUC(0-t) at 12 h [16]: 644 ng·h/mL
O=c1cc(-c2ccccc2)c2ccc(OCCCCN3CCC(c4noc5cc(F)ccc45)CC3)cc2o1 | 9.2 nM | – | 46.9 nM | –
Cc1cc(=O)oc2c(C)c(OCCCCN3CCC(c4noc5cc(F)ccc45)CC3)ccc12 | 0.9 nM | 226 nM | 598.6 nM | –
COc1ccccc1N1CCN(CCCCOc2ccc3c(C)cc(=O)oc3c2)CC1 | 8 nM | 31 nM | 86.9 nM | –

Source: ChEMBL document CHEMBL2385071, “Synthesis and biological investigation of coumarin piperazine (piperidine) derivatives as potential multireceptor atypical antipsychotics” (J Med Chem, 2013)
